According to US20260137774A1, “Hepatitis B Virus Receptor OATP and Use Thereof” (priority 2022, published 2026):

Legend:
HepG2 cells = assay: Drug susceptibility test of selection antibiotics on HepG2 cells; type: cell-based
Hela cells = assay: Drug susceptibility test of selection antibiotics on HeLa cells; type: cell-based
human OATP1B1 (hOATP1B1) = target: T1, human OATP1B1 (hOATP1B1) (Homo sapiens, UniProt Q9Y6L6); settings: pH 7.4
T1 sequence (Q9Y6L6 1-691): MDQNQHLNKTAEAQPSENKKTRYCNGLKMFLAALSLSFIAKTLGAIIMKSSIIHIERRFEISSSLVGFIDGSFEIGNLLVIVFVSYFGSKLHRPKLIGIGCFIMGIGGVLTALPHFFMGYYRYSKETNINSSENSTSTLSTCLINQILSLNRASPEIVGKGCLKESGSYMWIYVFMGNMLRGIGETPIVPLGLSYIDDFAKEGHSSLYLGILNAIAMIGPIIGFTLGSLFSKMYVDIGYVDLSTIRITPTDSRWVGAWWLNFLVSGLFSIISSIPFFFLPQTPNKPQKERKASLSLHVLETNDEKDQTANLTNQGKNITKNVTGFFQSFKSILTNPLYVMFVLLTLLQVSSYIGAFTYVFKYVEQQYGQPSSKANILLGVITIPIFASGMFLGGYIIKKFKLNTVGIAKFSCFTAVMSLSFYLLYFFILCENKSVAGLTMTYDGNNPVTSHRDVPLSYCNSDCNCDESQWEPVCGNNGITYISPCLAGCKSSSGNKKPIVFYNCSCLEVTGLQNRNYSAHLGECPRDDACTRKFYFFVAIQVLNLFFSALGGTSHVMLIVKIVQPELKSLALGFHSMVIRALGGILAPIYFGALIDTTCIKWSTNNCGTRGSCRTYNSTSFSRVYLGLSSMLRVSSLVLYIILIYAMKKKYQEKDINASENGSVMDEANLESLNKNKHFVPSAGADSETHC
Description: (§1) Cells for experiments were cultured in DMEM medium at 37° C. and 5% C02. Among them, DMEM medium contains 10% fetal calf serum, penicillin-streptomycin solution (100 U/mL and 0.1 mg/mL) and 0.5 mg/mL geneticin. Before the transfer experiment, cells were seeded in a 24-well plate at a density of 4×10^5 cells/well. The transfer experiment can be performed when the cell confluence reaches 80-90%.
(§2) The concentrations of substrates and positive inhibitors for each transporter are as follows.
(§3) Preparation of working solution: Use PBS to prepare a test substance stock solution with a concentration of 6 mM, and then dilute it with PBS in a gradient to 2000 μM, 1000 μM, 200 μM, 100 μM and 20 μM concentration working solution, and dilute the above working solutions of different concentrations to 20 μM, 10 μM, 2 μM, 1 μM and 0.2 μM concentration dosing solutions (Dosing Solution) respectively, so that the final concentrations of the test substance in the test system are 10 μM, 5 μM and 5 μM respectively. μM, 1 μM, 0.5 μM and 0.1 μM.
(§4) Pre-incubation of OATP1B1 and OATP1B3: Aspirate the culture medium from the culture plate, and wash the cells twice with 37° C. pre-warmed TB buffer (pH7.4), 0.5 mL each time. […] Among them, the NC group includes MOCK cells and each transporter cell, and the MOCK cell group is used to calculate the uptake ratio and passive transport amount. […]

human OATP1B3 (hOATP1B3) = target: T2, human OATP1B3 (hOATP1B3) (Homo sapiens, UniProt Q9NPD5); settings: pH 7.4
T2 sequence (Q9NPD5 1-702): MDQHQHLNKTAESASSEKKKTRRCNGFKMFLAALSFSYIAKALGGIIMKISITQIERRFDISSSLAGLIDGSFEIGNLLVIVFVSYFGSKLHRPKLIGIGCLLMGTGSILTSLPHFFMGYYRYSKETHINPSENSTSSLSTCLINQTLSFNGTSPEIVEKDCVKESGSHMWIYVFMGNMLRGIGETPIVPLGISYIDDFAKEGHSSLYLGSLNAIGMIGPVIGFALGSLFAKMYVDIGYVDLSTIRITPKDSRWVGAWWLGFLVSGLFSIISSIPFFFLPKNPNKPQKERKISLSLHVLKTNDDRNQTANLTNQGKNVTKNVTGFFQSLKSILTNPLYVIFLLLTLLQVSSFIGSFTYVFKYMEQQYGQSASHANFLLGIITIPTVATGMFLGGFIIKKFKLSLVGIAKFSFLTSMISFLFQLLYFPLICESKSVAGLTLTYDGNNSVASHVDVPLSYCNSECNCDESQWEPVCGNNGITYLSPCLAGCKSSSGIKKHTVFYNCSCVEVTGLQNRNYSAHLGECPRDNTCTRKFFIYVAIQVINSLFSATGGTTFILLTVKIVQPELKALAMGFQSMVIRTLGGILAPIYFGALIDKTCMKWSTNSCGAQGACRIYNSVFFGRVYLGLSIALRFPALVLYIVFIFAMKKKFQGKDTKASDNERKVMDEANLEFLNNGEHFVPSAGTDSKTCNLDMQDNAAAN
Description: as §1, §2, §3, §4

Row | SMILES | concentration that could kill all cultured cells (HepG2 cells) [µg/mL] | concentration that could kill all cultured cells (Hela cells) [µg/mL] | uptake ratio of drug substrate (human OATP1B1 (hOATP1B1)) | uptake ratio of drug substrate (human OATP1B3 (hOATP1B3))
1 | CN(CC[C@H](N)CC(=O)N[C@H]1C=C[C@H](n2ccc(N)nc2=O)O[C@@H]1C(=O)O)C(=N)N [BSD, Blasticidin] | 2 |  |  | 
2 | COc1ccc(C[C@H](N)C(=O)N[C@H]2[C@@H](O)[C@H](n3cnc4c(N(C)C)ncnc43)O[C@@H]2CO)cc1 [puromycin] | 1 | 1 |  | 
3 | CCCCC(=O)N(Cc1ccc(-c2ccccc2-c2nnn[nH]2)cc1)[C@H](C(=O)O)C(C)C [valsartan] |  |  | 3.25 | 6.90
